Earlier results on 16 molecules are cited in patent publication US5849729A, “Use of hydrolyzed cocoa butter for percutaneous absorption” (Hershey Foods Corporation, priority 1995, dated 1998).

Read-outs that look alike come from different tables or passages of the source.

For the data set the following is noted: cited from earlier work.
Setting [1] is: in vivo, topical or ocular, 120 h.

For the molecule `C[C@]12CCC(=O)C=C1CC[C@@H]1[C@@H]2CC[C@@]2(C)[C@H]1CC[C@]2(O)C(=O)CO` [17-OII DOC], for the setting “in vivo”, the “Absorption Rate 0-12” value is recorded as “.041 % hr”, the “Absorption Rate 12-24” value is “.101 % hr”, the “Absorption Rate 24-48” value is reported as “.084 % hr” and the “Absorption Rate 48-72” value is “.076 % hr”. Moreover, under “in vivo”, the “Absorption Rate 72-96” value was “.062 % hr” and the “Absorption Rate 96-120” value is “.065 % hr”. Moreover, the “Total Absorption (T of above)” value (topical, 0-120 hrs) is given as 8.41 % of the dose.
For `CC(=O)[C@@]1(O)CC[C@H]2[C@@H]3CCC4=CC(=O)CC[C@]4(C)[C@H]3CC[C@@]21C` [17-OII Progesterone], for the setting “topical, 0-120 hrs”, the “Total Absorption (T of above)” value is 14.76 % of the dose.
Regarding `C[C@]12CCC(=O)C=C1CC[C@@H]1[C@@H]2CC[C@]2(C)C(=O)CC[C@@H]12` [Androstenedione], for the setting “topical, 0-12 hrs”, the “Absorption Rate 0-12” value is on record as “.183 % hr”. Further, the “Total Absorption (T of above)” value (topical, 0-120 hrs) is listed as 13.47 % of the dose. For the same molecule, the “Absorption Rate 12-24” value (topical, 12-24 hrs) is “.334 % hr”. Further, the “Absorption Rate 24-48” value (topical, 24-48 hrs) is on record as “.155 % hr”. The “Absorption Rate 48-72” value (topical, 48-72 hrs) is reported as “.076 % hr”. Further, the “Absorption Rate 72-96” value (topical, 72-96 hrs) is on record as “.043 % hr”. Besides, the “Absorption Rate 96-120” value (topical, 96-120 hrs) was “.028 % hr”.
Consider `C[C@]12C[C@H](O)[C@H]3[C@@H](CCC4=CC(=O)CC[C@@]43C)[C@@H]1CC[C@@H]2C(=O)CO` [Corticosterone], for which the “Absorption Rate 0-12” value (topical, 0-12 hrs) is listed as “.013 % hr”. Moreover, under “topical, 0-120 hrs”, the “Total Absorption (T of above)” value is 8.78 % of the dose. Also, the “Absorption Rate 12-24” value (topical, 12-24 hrs) is recorded as “.065 % hr”. In addition, the “Absorption Rate 24-48” value (topical, 24-48 hrs) was “.139 % hr”. The “Absorption Rate 48-72” value (topical, 48-72 hrs) is “.070 % hr”. Also, the “Absorption Rate 72-96” value (topical, 72-96 hrs) is given as “.050 % hr”. For the same molecule, where the note is “topical, 96-120 hrs”, the “Absorption Rate 96-120” value was “.039 % hr”.
Turning to `C[C@]12CCC(=O)C=C1CC[C@@H]1[C@@H]2C(=O)C[C@@]2(C)[C@H]1CC[C@]2(O)C(=O)CO` [Cortisone], where the note is “published literature, topical”, the “absorption through the skin of closely related corticosteroid compounds” value (“absorption through the skin” for short) is 1-3 % of the dose. Moreover, for the setting “topical, 0-12 hrs”, the “Absorption Rate 0-12” value is “.015 % hr”. Moreover, the “Total Absorption (T of above)” value (topical, 0-120 hrs) is on record as 3.38 % of the dose. For the setting “topical, 12-24 hrs”, the “Absorption Rate 12-24” value is recorded as “.037 % hr”. Moreover, under “topical, 24-48 hrs”, the “Absorption Rate 24-48” value was “.039 % hr”. Moreover, under “topical, 48-72 hrs”, the “Absorption Rate 48-72” value was “.036 % hr”. Besides, for the setting “topical, 72-96 hrs”, the “Absorption Rate 72-96” value is given as “.032 % hr”. For the same molecule, where the note is “topical, 96-120 hrs”, the “Absorption Rate 96-120” value is “.024 % hr”.
Turning to `C[C@]12CC[C@H](O)CC1=CC[C@@H]1[C@@H]2CC[C@]2(C)C(=O)CC[C@@H]12` [Dehydroepiandrosterone], the “Absorption Rate 0-12” value (topical, 0-12 hrs) was “.265 % hr”. Where the note is “topical, 0-120 hrs”, the “Total Absorption (T of above)” value is given as 18.45 % of the dose. For the same molecule, the “Absorption Rate 12-24” value (topical, 12-24 hrs) is “.446 % hr”. The “Absorption Rate 24-48” value (topical, 24-48 hrs) is given as “.249 % hr”. For the same molecule, for the setting “topical, 48-72 hrs”, the “Absorption Rate 48-72” value is given as “.091 % hr”. Also, the “Absorption Rate 72-96” value (topical, 72-96 hrs) is listed as “.046 % hr”. The “Absorption Rate 96-120” value (topical, 96-120 hrs) was “.028 % hr”.
For `C[C@]12CC[C@H]3[C@@H](CCC4=CC(=O)CC[C@@]43C)[C@@H]1CC[C@@H]2C(=O)CO` [Desoxycorticosterone], under setting [1], the “Total Absorption (T of above)” value is 12.55 % of the dose. Besides, the “Absorption Rate 0-12” value (topical, 0-12 hrs) is “.197 % hr”. The “Absorption Rate 12-24” value (topical, 12-24 hrs) is “.313 % hr”. The “Absorption Rate 24-48” value (topical, 24-48 hrs) was “.143 % hr”. Where the note is “topical, 48-72 hrs”, the “Absorption Rate 48-72” value is “.069 % hr”. Further, for the setting “topical, 72-96 hrs”, the “Absorption Rate 72-96” value is given as “.035 % hr”. Further, the “Absorption Rate 96-120” value (topical, 96-120 hrs) is listed as “.020 % hr”.
Consider `C[C@@H]1C[C@H]2[C@@H]3CCC4=CC(=O)C=C[C@]4(C)[C@@]3(F)[C@@H](O)C[C@]2(C)[C@@]1(O)C(=O)CO` [Dexamethasone], for which the “Absorption Rate 0-12” value (topical, 0-12 hrs) was “.005 % hr”. In addition, the “Total Absorption (T of above)” value (topical, 0-120 hrs) is “.40 % of the dose”. Where the note is “topical, 12-24 hrs”, the “Absorption Rate 12-24” value was “.003 % hr”. Moreover, the “Absorption Rate 24-48” value (topical, 24-48 hrs) was “.004 % hr”. Also, for the setting “topical, 48-72 hrs”, the “Absorption Rate 48-72” value is “.003 % hr”. In addition, the “Absorption Rate 72-96” value (topical, 72-96 hrs) is recorded as “.002 % hr”. The “Absorption Rate 96-120” value (topical, 96-120 hrs) is on record as “.002 % hr”.
For the molecule `C[C@]12CC[C@@H]3c4ccc(O)cc4CC[C@H]3[C@@H]1CC[C@@H]2O` [Estradiol], under setting [1], the “Total Absorption (T of above)” value is recorded as 10.62 % of the dose. For the setting “in vivo”, the “Absorption Rate 0-12” value is on record as “.008 % hr”, the “Absorption Rate 12-24” value was “.056 % hr”, the “Absorption Rate 24-48” value is given as “.099 % hr” and the “Absorption Rate 48-72” value is listed as “.101 % hr”. In addition, under “in vivo”, the “Absorption Rate 72-96” value is listed as “.107 % hr” and the “Absorption Rate 96-120” value is given as “.103 % hr”.
In the case of `CC1(C)O[C@@H]2C[C@H]3[C@@H]4C[C@H](F)C5=CC(=O)C=C[C@]5(C)[C@@]4(F)[C@@H](O)C[C@]3(C)[C@]2(C(=O)CO)O1` [Flucinoione Acetonide, fluocinolone acetonide], where the note is “in vivo”, the “Absorption Rate 0-12” value is listed as “.002 % hr”, the “Absorption Rate 12-24” value is listed as “.011 % hr”, the “Absorption Rate 24-48” value was “.012 % hr” and the “Absorption Rate 48-72” value was “.016 % hr”. Also, for the setting “in vivo”, the “Absorption Rate 72-96” value is “.008 % hr” and the “Absorption Rate 96-120” value was “.005 % hr”. For the setting “published literature, topical”, the “absorption through the skin” value was 1-3 % of the dose. For the same molecule, the “Total Absorption (T of above)” value (topical, 0-120 hrs) is given as 1.34 % of the dose.
On to `CC(=O)OCC(=O)[C@@]1(O)CC[C@H]2[C@@H]3CCC4=CC(=O)CC[C@]4(C)[C@H]3[C@@H](O)C[C@@]21C` [Hydrocortisone Acetate], for which the “Total Absorption (T of above)” value under setting [1] is recorded as 2.55 % of the dose. Also, the “absorption through the skin” value (in vivo, topical or ocular) was 1-3 % of the dose. Further, where the note is “in vivo”, the “Absorption Rate 0-12” value is recorded as “.020 % hr”, the “Absorption Rate 12-24” value is reported as “.089 % hr”, the “Absorption Rate 24-48” value is “.032 % hr” and the “Absorption Rate 48-72” value is “.024 % hr”. Also, under “in vivo”, the “Absorption Rate 72-96” value is given as “.015 % hr” and the “Absorption Rate 96-120” value was “.008 % hr”.
On to `C[C@]12CCC(=O)C=C1CC[C@@H]1[C@@H]2[C@@H](O)C[C@@]2(C)[C@H]1CC[C@]2(O)C(=O)CO` [Hydrocortisone], for which, under setting [1], the “Total Absorption (T of above)” value is 1.87 % of the dose. For the setting “in vivo, topical or ocular”, the “absorption through the skin” value is 1-3 % of the dose. In addition, where the note is “in vivo”, the “Absorption Rate 0-12” value is reported as “.005 % hr”, the “Absorption Rate 12-24” value is listed as “.023 % hr”, the “Absorption Rate 24-48” value was “.019 % hr” and the “Absorption Rate 48-72” value is “.018 % hr”. Under “in vivo”, the “Absorption Rate 72-96” value was “.016 % hr” and the “Absorption Rate 96-120” value was “.010 % hr”.
For the molecule `CC(=O)[C@H]1CC[C@H]2[C@@H]3CCC4=CC(=O)CC[C@]4(C)[C@H]3CC[C@]12C` [Progesterone], the “Total Absorption (T of above)” value under setting [1] was 10.81 % of the dose. Under “in vivo”, the “Absorption Rate 0-12” value is “.208 % hr”, the “Absorption Rate 12-24” value is on record as “.264 % hr”, the “Absorption Rate 24-48” value is “.135 % hr” and the “Absorption Rate 48-72” value was “.045 % hr”. Besides, where the note is “in vivo”, the “Absorption Rate 72-96” value is “.024 % hr” and the “Absorption Rate 96-120” value is “.011 % hr”.
As for `CC(=O)O[C@H]1CC[C@H]2[C@@H]3CCC4=CC(=O)CC[C@]4(C)[C@H]3CC[C@]12C` [Testosterone Acetate], the “Absorption Rate 0-12” value (topical, 0-12 hrs) is given as “.103 % hr”. In addition, the “Total Absorption (T of above)” value (topical, 0-120 hrs) is 4.62 % of the dose. Besides, the “Absorption Rate 12-24” value (topical, 12-24 hrs) is reported as “.133 % hr”. For the same molecule, the “Absorption Rate 24-48” value (topical, 24-48 hrs) was “.048 % hr”. Further, the “Absorption Rate 48-72” value (topical, 48-72 hrs) is reported as “.015 % hr”. Besides, under “topical, 72-96 hrs”, the “Absorption Rate 72-96” value is listed as “.007 % hr”. For the setting “topical, 96-120 hrs”, the “Absorption Rate 96-120” value is “.004 % hr”.
`CCC(=O)O[C@H]1CC[C@H]2[C@@H]3CCC4=CC(=O)CC[C@]4(C)[C@H]3CC[C@]12C` [Testosterone Propionate]: the “Absorption Rate 0-12” value (topical, 0-12 hrs) is given as “.061 % hr”. Also, under “topical, 0-120 hrs”, the “Total Absorption (T of above)” value is on record as 3.44 % of the dose. In addition, the “Absorption Rate 12-24” value (topical, 12-24 hrs) is reported as “.096 % hr”. The “Absorption Rate 24-48” value (topical, 24-48 hrs) is recorded as “.035 % hr”. For the same molecule, under “topical, 48-72 hrs”, the “Absorption Rate 48-72” value is given as “.015 % hr”. Moreover, the “Absorption Rate 72-96” value (topical, 72-96 hrs) is given as “.009 % hr”. The “Absorption Rate 96-120” value (topical, 96-120 hrs) is given as “.005 % hr”.
As to `C[C@]12CC[C@H]3[C@@H](CCC4=CC(=O)CC[C@@]43C)[C@@H]1CC[C@@H]2O` [Testosterone], where the note is “topical, 0-12 hrs”, the “Absorption Rate 0-12” value is “.147 % hr”. Besides, for the setting “topical, 0-120 hrs”, the “Total Absorption (T of above)” value is recorded as 13.24 % of the dose. Further, the “Absorption Rate 12-24” value (topical, 12-24 hrs) was “.364 % hr”. The “Absorption Rate 24-48” value (topical, 24-48 hrs) is on record as “.156 % hr”. In addition, the “Absorption Rate 48-72” value (topical, 48-72 hrs) is “.066 % hr”. Further, where the note is “topical, 72-96 hrs”, the “Absorption Rate 72-96” value is “.036 % hr”. Moreover, where the note is “topical, 96-120 hrs”, the “Absorption Rate 96-120” value is listed as “.018 % hr”.
